ChEMBL document CHEMBL5335795, “Development of potent isoflavone-based formyl peptide receptor 1 (FPR1) antagonists and their effects in gastric cancer cell models” (Eur J Med Chem, 2023)
Calls of active or inactive are those of the source. No cut-off for these calls is given here.

How the values were obtained:
[1] = molecular target: T1, N-formyl peptide receptor 2 (Homo sapiens) (UniProt P25090); assay: Antagonist activity against human FPR2 expressed in human HL-60 cells assessed as inhibition of WKYMVM-induced calcium mobilization preincubated for 10 mins followed by WKYMVM addition and measured every 5s for 240s by Fluo4AM dye based scanning fluorimetric analysis; type: functional, cell-based; conditions: time 840.0 sec
T1 sequence (whole entry): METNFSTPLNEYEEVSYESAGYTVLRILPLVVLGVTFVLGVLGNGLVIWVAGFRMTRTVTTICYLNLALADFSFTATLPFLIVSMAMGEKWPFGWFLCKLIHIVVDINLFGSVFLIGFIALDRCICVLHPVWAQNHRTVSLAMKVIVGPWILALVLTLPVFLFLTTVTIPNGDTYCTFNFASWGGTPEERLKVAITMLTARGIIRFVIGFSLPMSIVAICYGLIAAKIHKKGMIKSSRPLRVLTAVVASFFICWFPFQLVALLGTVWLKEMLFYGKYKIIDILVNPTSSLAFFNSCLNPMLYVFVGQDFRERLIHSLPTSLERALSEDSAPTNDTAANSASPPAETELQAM

[2] = molecular target: T2, fMet-Leu-Phe receptor (Homo sapiens, UniProt P21462); assay: Antagonist activity against human FPR1 expressed in human HL-60 cells assessed as inhibition of fMLF-induced calcium mobilization preincubated for 10 mins followed by fMLF addition and measured every 5s for 240s by Fluo4AM dye based scanning fluorimetric analysis; type: functional, cell-based
T2 sequence (P21462 whole entry): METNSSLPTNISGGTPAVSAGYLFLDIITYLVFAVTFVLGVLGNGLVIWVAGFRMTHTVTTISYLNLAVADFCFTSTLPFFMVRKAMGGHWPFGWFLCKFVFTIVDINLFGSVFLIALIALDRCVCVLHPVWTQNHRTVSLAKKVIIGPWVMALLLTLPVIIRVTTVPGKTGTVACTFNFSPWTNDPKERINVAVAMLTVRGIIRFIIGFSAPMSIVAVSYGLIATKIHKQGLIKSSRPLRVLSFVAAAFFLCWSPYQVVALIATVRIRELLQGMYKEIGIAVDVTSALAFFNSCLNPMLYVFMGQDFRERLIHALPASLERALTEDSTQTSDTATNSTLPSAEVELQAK

[3] = molecular target: T2, fMet-Leu-Phe receptor; assay: Antagonist activity against human FPR1 expressed in human HL-60 cells assessed as inhibition of fMLF-induced calcium mobilization preincubated for 30 mins followed by fMLF addition and measured every 5s for 240s by Fluo4AM dye based scanning fluorimetric analysis; type: functional, cell-based
[4] = system: AGS; assay: Induction of apoptosis in human AGS cells assessed as viable cells at 5 uM measured after 48 hrs in presence of FPR1 antagonist, fMLF by Muse Annexin V cytofluorimetric analysis (reference value: 87.1%); type: functional; conditions: read-out: Activity
[5] = Metabolic stability of the compound in rat liver microsomes assessed as parent compound remaining at 10 uM preincubated for 10 mins followed by NADPH addition and measured after 30 mins by LC-MS analysis; type: ADME, Microsome; conditions: time 40 min, read-out: Stability
[6] = system: NCI-N87; assay: Induction of apoptosis in human NCI-N87 cells assessed as viable cells at 5 uM measured after 48 hrs in presence of FPR1 antagonist, fMLF by Muse Annexin V cytofluorimetric analysis (reference value: […]%); type: functional; conditions: read-out: Activity
[7] = system: NCI-N87; assay: Induction of apoptosis in human NCI-N87 cells assessed as viable cells at 5 uM measured after 48 hrs by Muse Annexin V cytofluorimetric analysis (reference value: 69.9%); type: functional; conditions: read-out: Activity
[8] = system: AGS; assay: Induction of apoptosis in human AGS cells assessed as viable cells at 5 uM measured after 48 hrs by Muse Annexin V cytofluorimetric analysis (reference value: 85.9%); type: functional; conditions: read-out: Activity

Row | inhibition [1] | IC50 [3] [nM] | SMILES | other results
1 |  | 310 | CCCCCCc1cc2c(=O)c(-c3nc4ccccc4n3C)c(C)oc2cc1OC(C)=O | 
2 | inactive |  | CCCCc1cc2c(=O)c(-c3ccccc3OC)c(C)oc2cc1OC(C)=O | 
3 | inactive |  | CCCc1cc2c(=O)c(-c3cccc(OC)c3)c(C)oc2cc1OC(C)=O | 
4 | inactive |  | CCCCCCc1cc2c(=O)c(-c3cccc(OC)c3)c(C(F)(F)F)oc2cc1OC(C)=O | 
5 | inactive |  | CCCCCc1cc2c(=O)c(-c3ccccc3OC)c(C)oc2cc1OC(C)=O | 

The next lines start with the molecule.

Row | SMILES | inhibition [1] | IC50 [3] [nM] | other results
6 | CCCCCCc1cc2c(=O)c(-c3ccccc3OC)c(C)oc2cc1OC(=O)N(C)C | inactive |  | IC50 [2]: Not Active
7 | CCCCCCC(=O)Oc1cc2oc(C)c(-c3cccc(OC)c3)c(=O)c2cc1C | inactive |  | 
8 | COc1ccccc1-c1c(C)oc2cc(OC(=O)c3ccco3)ccc2c1=O |  | 1900 | 
9 | CCc1cc2c(=O)c(-c3nc4ccccc4n3C)c(C)oc2cc1OC(C)=O |  | 1400 | 
10 | CCCc1cc2c(=O)c(-c3ccccc3OC)c(C)oc2cc1OC(=O)N(C)C | inactive |  | 
11 | COc1ccccc1-c1c(C(F)(F)F)oc2cc(OC(=O)c3ccco3)ccc2c1=O |  | 440 | 
12 | CCCCCCc1cc2c(=O)c(-c3ccccc3OC)c(C)oc2cc1OC(C)=O |  |  | viability at 5 µM [4]: 46.9%; remaining at 0.5 h, 10 µM [5]: 0%; viability at 5 µM [6]: 45.5%; viability at 5 µM [7]: 45.1%; viability at 5 µM [8]: 52%
13 | CCCCCCc1cc2c(=O)c(-c3ccccc3OC)c(C(F)(F)F)oc2cc1OC(C)=O |  |  | remaining at 0.5 h, 10 µM [5]: 0%
14 | CCCCCCC(=O)Oc1cc2oc(C)c(-c3ccccc3OC)c(=O)c2cc1C |  |  | remaining at 0.5 h, 10 µM [5]: 0%
15 | Cc1oc2cc(OC(=O)c3ccco3)ccc2c(=O)c1-c1nc2ccccc2n1C |  | 3100 | 
